Read-outs that look alike come from different tables or passages of the source.
Columns and labels:
[1] = type: physicochemical
Protocol: Determination of logD7.4. The log of distribution coefficients at pH 7.4 was determined in octanol-phosphate-buffered saline (PBS) using the miniaturized shake flask setup described previously.^36, 47 Briefly, 150 mL each of octanol and PBS pH 7.4 were stirred vigorously for 12-16 h. The layers were allowed to stand for at least 24 h for phase separation. The separated layers were collected and served as PBS saturated with octanol (PBS*) and octanol saturated with PBS (octanol*). Stock solutions (1 mM or 5 mM) of ligands were prepared in DMSO and diluted in PBS* to obtain 1 μM or 10 μM (3-5 mL) of the standard (std). This standard was used to prepare appropriate dilutions using octanol*, in triplicate, in 2-mL glass vials. The leftover standard was used to determine the standard concentration (Cstd). The vials were vortexed for 1 min and shaken horizontally at 700 rpm for 2 h. The vials were then shaken upright at 150 rpm for 2 h to allow the phases to separate. The octanol* layer was pipetted out, and the PBS* layer was used for further analyses. The concentrations of ligands in the standard and PBS* (CPBS*) were determined via fluorescence measurements of 200 μL of PBS* or std in 96-well plates on the Cytation 5 Multimode Plate Reader (BioTek). For Si-rhodamine containing ligands, 2-20 μL of trifluoroacetic acid was added to each well of the 96-well plate prior to the fluorescence measurements. Reported values are averages of at least two measurements. The logD7.4 was obtained as described previously using equation 2:
[formula] • where Cstd is the standard concentration in PBS, CPBS* is the concentration in PBS after partitioning, r is the dilution factor of the standard solution, VPBS* is the volume of PBS used in the partitioning, and Voctanol* is the volume of octanol used in the partitioning.

[2] = target: T1, msGFP-HaloTag® fusion localized to the mitochondrial outer membrane (Rhodococcus rhodochrous, UniProt P0A3G2, A155T/A167V/A172T/A224E/C128F/C176G/D78G/E160K/E257K/H272N/K175M/K195N/L47V/L88M/N227D/S58T/T264A/Y273L/Y87F); test: HEK293T labeling and fluorescence microscopy; type: cell-based; settings: for labeling of mitochondria-localized HaloTag®-msGFP fusion: live HEK293T cells, nanomolar concentration (100 nM, 1 h); for concentration at which ligand can be deployed for cellular labeling: live cells; for cellular fluorescence intensity (JF ligand/msGFP ratio): HEK293T cells, 100 nM, same imaging conditions
T1 construct: expressed in transfected cells; host or cells: HEK293T, calcium phosphate transfection
T1 sequence (P0A3G2 other isoform, or with tags, fused parts or gaps with the stated changes): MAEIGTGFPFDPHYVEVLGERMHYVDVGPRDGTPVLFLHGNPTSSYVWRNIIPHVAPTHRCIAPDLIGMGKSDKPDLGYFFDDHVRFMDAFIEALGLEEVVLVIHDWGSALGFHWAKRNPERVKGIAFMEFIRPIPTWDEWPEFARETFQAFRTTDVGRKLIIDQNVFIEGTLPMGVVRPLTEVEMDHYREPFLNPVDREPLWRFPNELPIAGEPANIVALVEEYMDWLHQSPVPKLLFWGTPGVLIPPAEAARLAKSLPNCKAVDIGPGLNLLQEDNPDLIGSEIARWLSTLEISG
Description: Plasmid construction. HaloTag®, amplified from the pHTC HaloTag® CMV-neo Vector (Promega; G7711) and monomeric-superfolder green fluorescent protein (msGFP; lab stock), was fused to the mitochondrial targeting signal from OMP25,^28 interspacing flexible GS(GSS)4 linkers between each domain by PCR Splicing by Overlap Extension (SOE). This construct was subcloned into hSynapsin promoter bearing a copy of FUGW.^29 FUGW was a gift from David Baltimore (Addgene plasmid #14883; RRID: Addgene_14883).^48 This construct was designated as pF(UG) hSyn HaloTag®-TEV-4×GS-msGFP-mito.
HEK293T cell culture. HEK293T cells (ATCC) were passaged before 80% confluency by trypsinization (Corning; 25-053-CI) and trituration. The cell suspension was then plated on glass coverslips (Warner instruments; 64-0734, CS-18R17) coated with poly-D-lysine (Thermofisher; ICN10269491) and cultured in Dulbecco's Modified Eagle Medium (DMEM; ThermoFisher; 11965-118) supplemented with 10% v/v fetal bovine serum (FBS, Atlanta Biological) and penicillin/streptomycin (pen/strep; ThermoFisher; MT-30-001-CI) at 37° C. in a humidified 5% v/v CO2 environment following ATCC guidelines. These HEK293T cells were tested for mycoplasma contamination using the Universal Mycoplasma Detection Kit (ATCC; 30-1012K) and validated using Short Tandem Repeat profiling by ATCC (ATCC; 135-XV) within the previous year.
HEK293T labeling and fluorescence microscopy. […] For pulse-chase experiments, HEK293T cells were incubated with biotin-HaloTag® ligand (6; #G8281, Promega) at either 100 nM or 10 μM for 1 hour at 37° C. and chased with 100 nM of JANELIA FLUOR® (JF)549-HaloTag® ligand (2HTL). […] For imaging, the coverslips containing HEK293T cells were fixed with 4% paraformaldehyde in PBS at 37° C. for 10 min, washed with PBS (3×), and mounted on glass slides with ProLong Glass Antifade Mountant with NucBlue™ Stain (ThermoFisher; P36981). These cells were imaged using a Zeiss LSM 880 with Airyscan and a plan-apochromatic 63×/1.40 oil objective in Fast Airyscan mode. The same image acquisition settings were used for each trial and condition. Images were then processed with automatic Airyscan deconvolution settings.

[3] = tested on: HaloTag®-histone H2B fusion protein; type: cell-based; settings: for time to reach saturation of labeling: 200 nM, live U2OS cells expressing HaloTag®-H2B, 0-4 h
Protocol: Dye loading kinetics. Live U2OS.H2B.HaloTag® stable cells were labeled over a time course of 0-4 h with 200 nM of biotin-JF549-HaloTag® ligand (12), biotin-JF608-HaloTag® ligand (13), biotin-JF646-HaloTag® ligand (14), or biotin-JF635-HaloTag® ligand (15) at 37° C. Cells were then washed 3× with dye-free media, fixed with 4% paraformaldehyde in 0.1 M phosphate buffer, pH 7.4 for 15 min at 37° C. Confocal imaging was performed on a Leica SP8 with an HC PL APO CS2 20×/0.75 immersion objective using the tunable white light laser (WLL) to excite dyes at their λabs in constant power mode. Fluorescence was quantified as the average integrated density of background corrected nuclear signals from confocal image stack projections analyzed in FIJI; n=100 nuclear signals per compound.

**Q.** For `C[Si]1(C)c2cc(N3CC(F)C3)ccc2C2(OC(=O)c3ccc(C(=O)NCCOCCOCCCCCCCl)cc32)c2ccc(N3CC(F)C3)cc21` [5HTL, JF635-HaloTag® ligand, reference compound], which logD7.4 ([1]; octanol-PBS pH 7.4) is on record?
**A.** 3.82

**Q.** And the “labeling of mitochondria-localized HaloTag®-msGFP fusion” value [2]?
**A.** labeled the mitochondria in live cells

**Q.** Which “time to reach saturation of labeling” value [3] does the source give for `C[Si]1(C)C2=CC(=[N+]3CC(C(=O)NCCOCCOCCNC(=O)CCCC[C@@H]4SC[C@@H]5NC(=O)N[C@@H]54)C3)C=CC2=C(c2cc(C(=O)NCCOCCOCCCCCCCl)ccc2C(=O)[O-])c2ccc(N3CCC3)cc21` (stereo partly drawn) [compound 14, Biotin-JF646-HaloTag® ligand] here?
**A.** approximately 1 h

**Q.** What about the logD7.4 ([1]; octanol-PBS pH 7.4) of the same compound?
**A.** 3.06

**Q.** What about the “labeling of mitochondria-localized HaloTag®-msGFP fusion” value [2] of the same compound?
**A.** labeled the mitochondria in live cells

**Q.** What about the “concentration at which ligand can be deployed for cellular labeling” value [2] of the same compound?
**A.** 100 nM

**Q.** For `C[Si]1(C)C2=CC(=[N+]3CC(F)(C(=O)NCCOCCOCCNC(=O)CCCC[C@@H]4SC[C@@H]5NC(=O)N[C@@H]54)C3)C=CC2=C(c2cc(C(=O)NCCOCCOCCCCCCCl)ccc2C(=O)[O-])c2ccc(N3CC(F)C3)cc21` (stereo partly drawn) [compound 15, Biotin-JF635-HaloTag® ligand], which “time to reach saturation of labeling” value [3] is on record?
**A.** approximately 1 h

**Q.** And the logD7.4 ([1]; octanol-PBS pH 7.4)?
**A.** 3.6

**Q.** And the “cellular fluorescence intensity (JF ligand/msGFP ratio)” value [2]?
**A.** lower fluorescence intensity than 5HTL

**Q.** And the “labeling of mitochondria-localized HaloTag®-msGFP fusion” value [2]?
**A.** labeled the mitochondria in live cells

**Q.** What about the “concentration at which ligand can be deployed for cellular labeling” value [2] of the same compound?
**A.** 100 nM

**Q.** Which membrane permeability [3] does the source give for “Biotin-JF549-HaloTag® ligand [compound 12]” here?
**A.** negligible membrane permeability

**Q.** And the logD7.4 ([1]; pH 7.4)?
**A.** 0.07

**Q.** And the “cellular fluorescence intensity (JF ligand/msGFP ratio)” value [2]?
**A.** poor labeling

**Q.** And the “labeling of mitochondria-localized HaloTag®-msGFP fusion” value [2]?
**A.** did not show appreciable cellular labeling

Reference: US20240239818A1, “COMPOUNDS AND COMPOSITIONS COMPRISING FLUOROPHORES FOR USE IN VISUALIZATION AND PURIFICATION OR MANIPULATION” (priority 2022, published 2024)
